# Reference: PubChem BioAssay (NCI)
#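 Test compounds were applied to cells in 96-well plates for 48 hours at 5 doses. Here, GI50 denotes the concentration required for 50% inhibition of growth. TGI: concentration producing complete growth inhibition.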
# Experiments:
# Assay in all cases: growth of human tumour cells (NCI), 48 h
# 786-0 renal = system: 786-0 renal
# A498 renal = system: A498 renal
# A549 NSCLC = system: A549 NSCLC
# ACHN renal = system: ACHN renal
# BT-549 breast = system: BT-549 breast
# CAKI-1 renal = system: CAKI-1 renal
# CCRF-CEM leukemia = system: CCRF-CEM leukemia
# COLO 205 colon = system: COLO 205 colon
# DU-145 prostate = system: DU-145 prostate
# EKVX NSCLC = system: EKVX NSCLC
# HCC-2998 colon = system: HCC-2998 colon
# HCT-116 colon = system: HCT-116 colon
# HCT-15 colon = system: HCT-15 colon
# HL-60(TB) leukemia = system: HL-60(TB) leukemia
# HOP-62 NSCLC = system: HOP-62 NSCLC
# HOP-92 NSCLC = system: HOP-92 NSCLC
# HS 578T breast = system: HS 578T breast
# HT29 colon = system: HT29 colon
# IGROV1 ovarian = system: IGROV1 ovarian
# K-562 leukemia = system: K-562 leukemia
# KM12 colon = system: KM12 colon
# LOX IMVI melanoma = system: LOX IMVI melanoma
# M14 melanoma = system: M14 melanoma
# MALME-3M melanoma = system: MALME-3M melanoma
# MCF7 breast = system: MCF7 breast
# MDA-MB-231 breast = system: MDA-MB-231 breast
# MDA-MB-435 = system: MDA-MB-435
# MDA-N = system: MDA-N
# MOLT-4 leukemia = system: MOLT-4 leukemia
# NCI-H226 lung = system: NCI-H226 lung
# NCI-H23 lung = system: NCI-H23 lung
# NCI-H460 lung = system: NCI-H460 lung
# NCI-H522 lung = system: NCI-H522 lung
# NCI/ADR-RES ovarian = system: NCI/ADR-RES ovarian
# OVCAR-3 ovarian = system: OVCAR-3 ovarian
# OVCAR-4 ovarian = system: OVCAR-4 ovarian
# OVCAR-5 ovarian = system: OVCAR-5 ovarian
# OVCAR-8 ovarian = system: OVCAR-8 ovarian
# PC-3 prostate = system: PC-3 prostate
# RPMI-8226 leukemia = system: RPMI-8226 leukemia
# RXF 393 renal = system: RXF 393 renal
# SF-268 CNS = system: SF-268 CNS
# SF-295 CNS = system: SF-295 CNS
# SF-539 CNS = system: SF-539 CNS
# SK-MEL-2 melanoma = system: SK-MEL-2 melanoma
# SK-MEL-28 melanoma = system: SK-MEL-28 melanoma
# SK-MEL-5 melanoma = system: SK-MEL-5 melanoma
# SK-OV-3 ovarian = system: SK-OV-3 ovarian
# SN12C renal = system: SN12C renal
# SNB-19 CNS = system: SNB-19 CNS
# SNB-75 CNS = system: SNB-75 CNS
# SR leukemia = system: SR leukemia
# SW-620 colon = system: SW-620 colon
# T-47D breast = system: T-47D breast
# TK-10 renal = system: TK-10 renal
# U251 CNS = system: U251 CNS
# UACC-257 melanoma = system: UACC-257 melanoma
# UACC-62 melanoma = system: UACC-62 melanoma
# UO-31 renal = system: UO-31 renal
# KM20L2 colon = system: KM20L2 colon
smiles,measurement,setting,value
CSC12c3cc(C)n(-c4ccc(I)cc4)c3CC(C)(C)CN1C(=O)C2Oc1ccccc1 (configuration not stated),TGI,786-0 renal,> 100 µM
same,TGI,A498 renal,> 100 µM
same,TGI,A549 NSCLC,> 100 µM
same,TGI,ACHN renal,> 100 µM
same,TGI,BT-549 breast,> 100 µM
same,TGI,CAKI-1 renal,> 100 µM
same,TGI,CCRF-CEM leukemia,> 100 µM
same,TGI,COLO 205 colon,> 100 µM
same,TGI,DU-145 prostate,> 100 µM
same,TGI,EKVX NSCLC,> 100 µM
same,TGI,HCC-2998 colon,> 100 µM
same,TGI,HCT-116 colon,> 100 µM
same,TGI,HCT-15 colon,> 100 µM
same,TGI,HL-60(TB) leukemia,> 100 µM
same,TGI,HOP-62 NSCLC,> 100 µM
same,TGI,HOP-92 NSCLC,> 100 µM
same,TGI,HS 578T breast,> 100 µM
same,TGI,HT29 colon,> 100 µM
same,TGI,IGROV1 ovarian,> 100 µM
same,TGI,K-562 leukemia,> 100 µM
same,TGI,KM12 colon,> 100 µM
same,TGI,LOX IMVI melanoma,> 100 µM
same,TGI,M14 melanoma,> 100 µM
same,TGI,MALME-3M melanoma,> 100 µM
same,TGI,MCF7 breast,> 100 µM
same,TGI,MDA-MB-231 breast,> 100 µM
same,TGI,MDA-MB-435,> 100 µM
same,TGI,MDA-N,> 100 µM
same,TGI,MOLT-4 leukemia,> 100 µM
same,TGI,NCI-H226 lung,> 100 µM
same,TGI,NCI-H23 lung,> 100 µM
same,TGI,NCI-H460 lung,> 100 µM
same,TGI,NCI-H522 lung,> 100 µM
same,TGI,NCI/ADR-RES ovarian,> 100 µM
same,TGI,OVCAR-3 ovarian,> 100 µM
same,TGI,OVCAR-4 ovarian,> 100 µM
same,TGI,OVCAR-5 ovarian,> 100 µM
same,TGI,OVCAR-8 ovarian,> 100 µM
same,TGI,PC-3 prostate,> 100 µM
same,TGI,RPMI-8226 leukemia,> 100 µM
same,TGI,RXF 393 renal,> 100 µM
same,TGI,SF-268 CNS,> 100 µM
same,TGI,SF-295 CNS,> 100 µM
same,TGI,SF-539 CNS,> 100 µM
same,TGI,SK-MEL-2 melanoma,> 100 µM
same,TGI,SK-MEL-28 melanoma,> 100 µM
same,TGI,SK-MEL-5 melanoma,> 100 µM
same,TGI,SK-OV-3 ovarian,> 100 µM
same,TGI,SN12C renal,> 100 µM
same,TGI,SNB-19 CNS,> 100 µM
same,TGI,SNB-75 CNS,> 100 µM
same,TGI,SR leukemia,> 100 µM
same,TGI,SW-620 colon,> 100 µM
same,TGI,T-47D breast,> 100 µM
same,TGI,TK-10 renal,> 100 µM
same,TGI,U251 CNS,> 100 µM
same,TGI,UACC-257 melanoma,> 100 µM
same,TGI,UACC-62 melanoma,> 100 µM
same,TGI,UO-31 renal,> 100 µM
c1ccc(-c2cc3nc4ccccc4nc3cc(-c3ccccc3)[nH][nH]2)cc1,TGI,786-0 renal,> 100 µM
same,TGI,A498 renal,55.7 µM
same,TGI,A549 NSCLC,> 100 µM
same,TGI,ACHN renal,77.9 µM
same,TGI,BT-549 breast,> 100 µM
same,TGI,CAKI-1 renal,> 100 µM
same,TGI,CCRF-CEM leukemia,> 100 µM
same,TGI,COLO 205 colon,> 100 µM
same,TGI,DU-145 prostate,> 100 µM
same,TGI,EKVX NSCLC,> 100 µM
same,TGI,HCC-2998 colon,> 100 µM
same,TGI,HCT-116 colon,> 100 µM
same,TGI,HCT-15 colon,> 100 µM
same,TGI,HL-60(TB) leukemia,53.5 µM
same,TGI,HOP-62 NSCLC,66.9 µM
same,TGI,HOP-92 NSCLC,> 100 µM
same,TGI,HS 578T breast,> 100 µM
same,TGI,HT29 colon,> 100 µM
same,TGI,IGROV1 ovarian,> 100 µM
same,TGI,K-562 leukemia,> 100 µM
same,TGI,KM12 colon,> 100 µM
same,TGI,LOX IMVI melanoma,> 100 µM
same,TGI,M14 melanoma,> 100 µM
same,TGI,MALME-3M melanoma,> 100 µM
same,TGI,MCF7 breast,> 100 µM
same,TGI,MDA-MB-231 breast,> 100 µM
same,TGI,MDA-MB-435,> 100 µM
same,TGI,MDA-N,> 100 µM
same,TGI,MOLT-4 leukemia,> 100 µM
same,TGI,NCI-H226 lung,> 100 µM
same,TGI,NCI-H23 lung,> 100 µM
same,TGI,NCI-H460 lung,> 100 µM
same,TGI,NCI-H522 lung,> 100 µM
same,TGI,NCI/ADR-RES ovarian,> 100 µM
same,TGI,OVCAR-3 ovarian,64.7 µM
same,TGI,OVCAR-4 ovarian,> 100 µM
same,TGI,OVCAR-5 ovarian,> 100 µM
same,TGI,OVCAR-8 ovarian,> 100 µM
same,TGI,PC-3 prostate,> 100 µM
same,TGI,RPMI-8226 leukemia,> 100 µM
same,TGI,RXF 393 renal,> 100 µM
same,TGI,SF-268 CNS,> 100 µM
same,TGI,SF-295 CNS,88.7 µM
same,TGI,SF-539 CNS,> 100 µM
same,TGI,SK-MEL-2 melanoma,> 100 µM
same,TGI,SK-MEL-28 melanoma,> 100 µM
same,TGI,SK-MEL-5 melanoma,> 100 µM
same,TGI,SK-OV-3 ovarian,39.5 µM
same,TGI,SN12C renal,> 100 µM
same,TGI,SNB-19 CNS,> 100 µM
same,TGI,SNB-75 CNS,99.1 µM
same,TGI,SR leukemia,> 100 µM
same,TGI,SW-620 colon,> 100 µM
same,TGI,T-47D breast,> 100 µM
same,TGI,TK-10 renal,51.8 µM
same,TGI,U251 CNS,> 100 µM
same,TGI,UACC-257 melanoma,> 100 µM
same,TGI,UACC-62 melanoma,> 100 µM
same,TGI,UO-31 renal,> 100 µM
CC(=O)[O-].CC(=O)[O-].O=C([CH-]C(=O)c1ccccc1)c1ccccc1.[Nd+3].[OH3+],GI50,786-0 renal,19.4 µM
same,TGI,786-0 renal,63.9 µM
same,GI50,A498 renal,43.1 µM
same,TGI,A498 renal,> 100 µM
same,GI50,A549 NSCLC,28.2 µM
same,TGI,A549 NSCLC,84.3 µM
same,GI50,ACHN renal,31.3 µM
same,TGI,ACHN renal,> 100 µM
same,GI50,CAKI-1 renal,27.9 µM
same,TGI,CAKI-1 renal,91.3 µM
same,GI50,COLO 205 colon,27.9 µM
same,TGI,COLO 205 colon,> 100 µM
same,GI50,EKVX NSCLC,24.5 µM
same,TGI,EKVX NSCLC,76.5 µM
same,GI50,HCC-2998 colon,25 µM
same,TGI,HCC-2998 colon,> 100 µM
same,GI50,HCT-116 colon,19.7 µM
same,TGI,HCT-116 colon,> 100 µM
same,GI50,HCT-15 colon,19.4 µM
same,TGI,HCT-15 colon,> 100 µM
same,GI50,HL-60(TB) leukemia,7.85 µM
same,TGI,HL-60(TB) leukemia,31.8 µM
same,GI50,HOP-62 NSCLC,14.7 µM
same,TGI,HOP-62 NSCLC,73.6 µM
same,GI50,HOP-92 NSCLC,20.1 µM
same,TGI,HOP-92 NSCLC,63.8 µM
same,GI50,HT29 colon,20.9 µM
same,TGI,HT29 colon,89.6 µM
same,GI50,IGROV1 ovarian,28.5 µM
same,TGI,IGROV1 ovarian,> 100 µM
same,GI50,K-562 leukemia,7.26 µM
same,TGI,K-562 leukemia,> 100 µM
same,GI50,KM12 colon,14 µM
same,TGI,KM12 colon,> 100 µM
same,GI50,KM20L2 colon,30.5 µM
same,TGI,KM20L2 colon,> 100 µM
same,GI50,LOX IMVI melanoma,22.4 µM
same,TGI,LOX IMVI melanoma,> 100 µM
same,GI50,M14 melanoma,20.7 µM
same,TGI,M14 melanoma,53 µM
same,GI50,MALME-3M melanoma,26.1 µM
same,TGI,MALME-3M melanoma,85.2 µM
same,GI50,MOLT-4 leukemia,10.6 µM
same,TGI,MOLT-4 leukemia,> 100 µM
same,GI50,NCI-H226 lung,13.8 µM
same,TGI,NCI-H226 lung,60.6 µM
same,GI50,NCI-H23 lung,18.7 µM
same,TGI,NCI-H23 lung,57.7 µM
same,GI50,NCI-H460 lung,16.7 µM
same,TGI,NCI-H460 lung,> 100 µM
same,GI50,NCI-H522 lung,13.2 µM
same,TGI,NCI-H522 lung,43.6 µM
same,GI50,OVCAR-3 ovarian,10.7 µM
same,TGI,OVCAR-3 ovarian,33.5 µM
same,GI50,OVCAR-4 ovarian,27 µM
same,TGI,OVCAR-4 ovarian,> 100 µM
same,GI50,OVCAR-5 ovarian,68.4 µM
same,TGI,OVCAR-5 ovarian,> 100 µM
same,GI50,OVCAR-8 ovarian,15.8 µM
same,TGI,OVCAR-8 ovarian,> 100 µM
same,GI50,RPMI-8226 leukemia,22.8 µM
same,TGI,RPMI-8226 leukemia,> 100 µM
same,GI50,SF-268 CNS,16.8 µM
same,TGI,SF-268 CNS,> 100 µM
same,GI50,SF-295 CNS,10.7 µM
same,TGI,SF-295 CNS,35.2 µM
same,GI50,SF-539 CNS,31.6 µM
same,TGI,SF-539 CNS,93.5 µM
same,GI50,SK-MEL-2 melanoma,16.4 µM
same,TGI,SK-MEL-2 melanoma,50.7 µM
same,GI50,SK-MEL-28 melanoma,23.3 µM
same,TGI,SK-MEL-28 melanoma,81.2 µM
same,GI50,SK-MEL-5 melanoma,14.5 µM
same,TGI,SK-MEL-5 melanoma,33.9 µM
same,GI50,SK-OV-3 ovarian,27 µM
same,TGI,SK-OV-3 ovarian,90.5 µM
same,GI50,SN12C renal,23.5 µM
same,TGI,SN12C renal,92.3 µM
same,GI50,SNB-19 CNS,30.1 µM
same,TGI,SNB-19 CNS,> 100 µM
same,GI50,SNB-75 CNS,6.24 µM
same,TGI,SNB-75 CNS,32.9 µM
same,GI50,SW-620 colon,16.3 µM
same,TGI,SW-620 colon,> 100 µM
same,GI50,TK-10 renal,27 µM
same,TGI,TK-10 renal,87.6 µM
same,GI50,U251 CNS,16.7 µM
same,TGI,U251 CNS,> 100 µM
same,GI50,UACC-257 melanoma,17.9 µM
same,TGI,UACC-257 melanoma,54.9 µM
same,GI50,UACC-62 melanoma,16.5 µM
same,TGI,UACC-62 melanoma,48.6 µM
same,GI50,UO-31 renal,17 µM
same,TGI,UO-31 renal,49.3 µM
